Results published in US11643655B2, “Methods for intracellular delivery and enhanced gene targeting” (CITY OF HOPE, priority 2016, dated 2023).
Several values for one entry are separate records, joined by “and”; a condition that tells them apart may be missing. Identical values can stand only once. Entries after “also recorded” stand apart in the source; their conditions may differ. Like-named read-outs stand apart in the source and are kept apart here. l = locked nucleic acid (LNA); d = 2'-deoxy (DNA)

What was measured:
HeLa EGFP-654 cells [1] = test: SSO-654-mediated EGFP expression (splice switching) in HeLa EGFP-654 cells; flow cytometry, Western blot, microscopy; type: cell-based, human
[2] = cited from earlier work
[3] = tested on: HeLa-EGFP-654 and LNCaP cells; type: cell-based, human
PKR = PKR expression by real-time PCR (cellular stress response) in HeLa-GFP-654 cells; type: cell-based, human
HeLa EGFP-654 cells [4] = test: Cell growth and proliferation, SRB staining; conditions: two days
β-catenin = type: cell-based, human
[5] = oligonucleotides delivered by gymnosis; cited from earlier work
[6] = cited from earlier work; remark: listed apart in the source
androgen receptor (AR) = test: ASO silencing of AR protein expression, Western blot; type: cell-based, human; conditions: LNCaP cells; for reduction in AR protein expression: three days
Protocol: Cells were harvested with trypsin digestion and washed once with PBS. Cell pellets were lysed in cold RIPA buffer containing protease inhibitors. Cellular RIPA lysates were sonicated for 2 seconds and then rested on ice for 5 min. Cell debris was removed by centrifugation at 12,000×g for 10 min at 4° C. Protein concentrations were determined using the Pierces BCA Protein Assay kit (Thermo Fisher Scientific, Waltham, Mass.). Aliquots of cell extracts containing 30-40 μg of protein were resolved by SDS-PAGE gel electrophoresis, and then transferred to PVDF membranes. After treatment with the appropriate primary and secondary antibodies, enhanced chemiluminescence was performed. Protein signals on the blot were quantified with the Image J program and protein expression was normalized to control=100%.
Protein expression was quantified with ImageJ.

AR mRNA = AR mRNA RT-PCR in LNCaP cells; type: cell-based, human; conditions: 1 μM AR-ASO with 5 mM NH4^+, 24 hr, p<0.01
Protocol: Values were normalized to GAPDH mRNA expression and expressed as the mean±SD, n=3. **p<0.01, Students t-test.
RNA was extracted from cells using RNA-STAT 60 (AMS Biotechnology, Abingdon, UK) as recommended by the manufacturer. First-strand cDNA was synthesized with the Super-Script® III First-Strand Synthesis System Kit (Invitrogen, Carlsbad, Calif.). PCR was performed with Power SYBR GREEN PCR Master Mix (Thermo Fisher Scientific, Waltham, Mass.).

BCL-2 = type: cell-based, human
Malat-1 = type: cell-based, human
CDR1 = type: cell-based, human
HDAC-2 mRNA = type: cell-based, human
HeLa EGFP-654 cells [7] = tested on: HeLa EGFP-654 cells
eGFP mRNA = type: cell-based, human

For `O=C1Nc2cc(Br)ccc2/C1=C1/Nc2ccccc2/C1=N\O` [6BIO], the “frequency of splice switching (correctly spliced eGFP expression)” value (shortened to “frequency of splice switching”) (HeLa EGFP-654 cells [1]) was “increased frequency of splice switching”.
In the case of `CCCCCCCC/C=C\CCCCCCCC(=O)O` [oleic acid], the “SSO-654 activity (EGFP MFI)” value (HeLa EGFP-654 cells [1]) is reported as “significantly enhanced SSO-654 activity”.
For `Nc1c(Br)cc(Br)cc1CN[C@H]1CC[C@H](O)CC1` [Ambroxol], the “SSO-654 activity (EGFP MFI)” value (HeLa EGFP-654 cells [1]) is given as “significantly enhanced SSO-654 activity” and the pKa [2] is given as 9.1.
For `Cl.N` [NH4^+, Ammonium chloride], the “activity of lipofected SSO-654 (EGFP MFI)” value (HeLa EGFP-654 cells [1]) was “did not enhance the activity of the SSO-654”, the “increase of SSO-654-induced EGFP protein expression” value (HeLa EGFP-654 cells [1]) was “more than two-fold” and the “increase of SSO-654 function and EGFP expression compared to SSO-654 alone” value (HeLa EGFP-654 cells [1]) was “a minimum of five fold”. For the same molecule, the “increase of percentage of EGFP positive cells and EGFP protein expression compared to SSO-654 alone” value (HeLa EGFP-654 cells [1]) was “nearly seven-fold”, the “increase of percentage of EGFP-positive cells, NH4^+/SSO-654 vs SSO-654” value (HeLa EGFP-654 cells [1]) was “nearly four-fold” and the “oligonucleotide (SSO) function, flow cytometry” value (HeLa EGFP-654 cells [1]) was “able to increase oligonucleotide function”. The “upregulation of SSO-654-mediated EGFP expression” value (HeLa EGFP-654 cells [1]) was “three- to five-fold”, the “cellular uptake of Cy5-ASO (Cy5 MFI)” value [3] was “did not significantly affect the cellular uptake” and the “PKR activation / expression” value (PKR) was “does not seem to activate the stress gene response”. For the same molecule, the “effect on cell growth” value (HeLa EGFP-654 cells [4]; NH4^+ alone 1 mM-2 mM) was “did not affect the growth”, the “inhibition of cell growth” value (HeLa EGFP-654 cells [4]; NH4^+ alone 5 mM, normalized to non-treated controls) was “about 15%” and the “increase of β-Cat-ASO efficacy” value (β-catenin) was “approximately two fold”.
For `CCC(=O)N1CC(=O)Nc2ccc(Br)cc2C1c1ccccc1` (stereo not drawn) [Retro-1], the “optimal concentration for enhancing SSO and ASO efficacy” value [5] is given as 50 to 100 µM and the water solubility [6] is given as “poorly water-soluble”.
For “AR-ASO: Phosphorothioate LNA gapmer ASO targeting Androgen Receptor, 5′-ACCaagtttcttcAGC-3′ (SEQ ID NO: 6) (antisense ACCAAGTTTCTTCAGC; sugars from the 5' end l3 d10 l3, all phosphorothioate, methylation of C not given here)”, the “inhibition of NH4^+ and SSO-654-mediated EGFP expression by a second ASO” value (HeLa EGFP-654 cells [1]) was “only slight or no inhibition”, the “AR reduction, dose response” value (androgen receptor (AR); 0.25 μM AR-ASO with 5 mM NH4^+ vs 1 μM AR-ASO alone) was “greater AR reduction than 1 μM AR-ASO alone” and the “reduction in AR protein expression” value (androgen receptor (AR); 1 μM AR-ASO alone) was 40%. For the same molecule, the “reduction in AR protein expression” value (androgen receptor (AR); 1 μM AR-ASO with 5 mM NH4^+) was 80% and the “reduction of AR mRNA expression compared with the AR-ASO alone” value (AR mRNA) was “about 40%”.
For “BCL2-ASO: Phosphorothioate LNA gapmer ASO targeting BCL-2, 5′-^mCTcccagcgtgcg^mC^mCa-3′ (SEQ ID NO: 3)”, the “effect of BCL2-ASO on SSO-654 activity and EGFP expression” value (HeLa EGFP-654 cells [1]) was “diminished”, the “effect of BCL2-ASO on SSO-654 function” value (HeLa EGFP-654 cells [1]) was “did not affect SSO-654 function” and the “BCL2 silencing (BCL-2 protein expression)” value (BCL-2) was 65%. For the same molecule, the BCL-2 protein expression (BCL-2) was “nearly completely depleted BCL-2 protein expression; also recorded: Some silencing of the BCL-2 protein expression” and the “depletion of BCL-2 protein expression” value (BCL-2) was 98% and 70%.
In the case of `CC(=O)O.N` [ammonium acetate], the “effect on SSO-654-mediated EGFP expression compared with NH4^+” value (HeLa EGFP-654 cells [1]) is reported as “comparable effects”.
For `OO` [H2O2, hydrogen peroxide], the “frequency of splice switching” value (HeLa EGFP-654 cells [1]) was “increased frequency of splice switching”, the “oligonucleotide (SSO) function, flow cytometry” value (HeLa EGFP-654 cells [1]) was “able to increase oligonucleotide function” and the “PKR activation / expression” value (PKR; oligonucleotide (SSO) combined with the treatment) was “increasing PKR expression”.
For “β-Cat-ASO: Phosphorothioate LNA gapmer ASO targeting β-catenin, 5′-CCAtcttgtgatcCAT-3′ (SEQ ID NO: 5) (antisense CCATCTTGTGATCCAT; sugars from the 5' end l3 d10 l3, all phosphorothioate, methylation of C not given here)”, the β-catenin gene expression (β-catenin) was “nearly eliminated β-catenin gene expression”.
For `NC1CCCCC1` [cyclohexylamine], the “SSO-654 activity (EGFP MFI)” value (HeLa EGFP-654 cells [1]) was “significantly enhanced SSO-654 activity”.
With arsenic trioxide [As III] the “frequency of splice switching” value (HeLa EGFP-654 cells [1]) was “increased frequency of splice switching”, the “upregulation of SSO-654-mediated EGFP expression” value (HeLa EGFP-654 cells [1]) was “three- to five-fold” and the “oligonucleotide uptake (Cy5-ON by gymnosis)” value [3] was “No significant changes”. For the same molecule, the “BCL2-ASO activity (BCL-2 protein)” value (BCL-2) was “did not significantly increase”, the Malat-1 gene expression (Malat-1) was “silenced as a function of increasing As III concentrations” and the CDR-1 gene expression (CDR1) was “silenced as a function of increasing As III concentrations”. The “expression of HDAC-2 mRNA” value (HDAC-2 mRNA) was “did not significantly change”, the “PKR activation / expression” value (PKR) was “PKR is activated” and the cell viability (HeLa EGFP-654 cells [7]) was “No significant changes”. The “cytoplasmic oligonucleotide function (eGFP mRNA silencing by ON-eGFP)” value (eGFP mRNA) was “some loss of oligonucleotide function” and the “β-Cat-ASO activity (β-catenin protein)” value (β-catenin) was “did not significantly increase”.
